From patent US20250009819A1, “NOVEL PROBIOTICS AND USE THEREOF” (PBLBIOLAB CO., LTD., priority 2021, published 2025)

Legend:
Format in all cases: in vivo, C57BL/6 male mice
[1] = system: animals with LPS-induced cognitive impairment; assay: Animals with LPS-induced cognitive impairment: colitis improvement (colon); settings: LPS-treated mice, 1×10^9 CFU/mouse or sulfasalazine 50 mg/kg once a day for 5 days
Method: (§1) To 100 mg of colon tissue, 200 μl of 10 mM potassium phosphate buffer (pH 7.0) containing 0.5% hexadecyl trimethyl ammonium bromide was added and homogenized. Then, the supernatant was obtained by centrifugation for 10 minutes at 4° C. and 10,000 g. A volume of 50 μl of the supernatant was added to 0.95 mk of reaction solution (containing 1.6 mM tetramethyl benzidine and 0.1 mM H2O2), reacted at 37° C., and absorbance was monitored over time at 650 nm.
(§2) Hippocampus, colon, and spleen tissues were homogenized by adding 1 ml of RIPA buffer (Gibco) containing protease inhibitor cocktail and centrifuged at 4° C., 13000 rpm for 15 min to obtain supernatant. Indicators of this supernatant were measured using an ELISA kit (Ebioscience).
C57BL/6 male mice (5 weeks old, 19-21 g) were divided (6 mice in each group) and acclimatized to the laboratory for 1 week. To induce intestinal and brain diseases, mice were intraperitoneally administered Escherichia coli-derived LPS (10 μg/kg) once daily for 5 days. […] Experimental animals in the normal group were orally administered with a physiological saline solution, which was used to suspend lactic acid bacteria. The day following the conclusion of sample administration, the experimental animals were sacrificed, and samples from the brain hippocampus, colon, and spleen were collected. In the Hippocampus, inflammatory indicators, such as IFN-γ, TNF-α, and IL-10, were measured using ELISA. In the colon, intestinal length and inflammatory indicators, such as IFN-γ, TNF-α, and IL-10, were measured. In the spleen, Th1 cells and Treg cells were measured by FACS (Fluorescence-Activated Cell Sorting).

[2] = system: immunosuppressed animals induced by anticancer drug (cyclophosphamide); assay: Immunosuppressed animals induced by cyclophosphamide: colitis improvement (colon); settings: cyclophosphamide (CP)-treated mice, 1×10^9 CFU/mouse orally once a day for 5 days
Method: as §1, §2
C57BL/6 male mice (5 weeks old, 19-21 g) were divided (6 mice in each group) and acclimatized to the laboratory for 1 week. To induce intestinal and brain diseases, the mice were administered with cyclophosphamide (CP, 150 mg/kg, dissolved in physiological saline) for 1 day, rested for 1 day, and then administered intraperitoneally the next day. Meanwhile, the normal group was administered intraperitoneally with 0.1 ml of physiological saline. […] The day following the conclusion of sample administration, the experimental animals were sacrificed, and samples from the brain hippocampus, colon, and spleen were collected. In the Hippocampus, inflammatory indicators, such as IFN-γ, TNF-α, and IL-10, were measured using ELISA. In the colon, intestinal length and inflammatory indicators, such as IFN-γ, TNF-α, and IL-10, were measured. In the spleen, Th1 cells and Treg cells were measured by FACS (Fluorescence-Activated Cell Sorting).

[3] = system: animals with antibiotic-induced gut microbiota imbalance; assay: Animals with antibiotic (ampicillin)-induced gut microbiota imbalance: colitis improvement (colon); settings: ampicillin (AP)-treated mice, 1×10^9 CFU/mouse orally once a day for 5 days
Method: as §1, §2
(§3) C57BL/6 male mice (5 weeks old, 19-21 g) were divided (6 mice in each group) and acclimatized to the laboratory for 1 week. To induce intestinal and brain diseases, the mice were orally administered with ampicillin (AP, 100 mg/kg, dissolved in physiological saline) for 3 days. Meanwhile, the normal group was orally administered with 0.1 ml of physiological saline. […] The day following the conclusion of sample administration, the experimental animals were sacrificed, and samples from the brain hippocampus, colon, and spleen were collected. In the Hippocampus, inflammatory indicators, such as IFN-γ, TNF-α, and IL-10, were measured using ELISA. In the colon, intestinal length and inflammatory indicators, such as IFN-γ, TNF-α, and IL-10, were measured. In the spleen, Th1 cells and Treg cells were measured by FACS (Fluorescence-Activated Cell Sorting), and in feces, endotoxin (LPS) and gut microbial communities were measured.

[4] = system: gut microbiota; assay: Gut microbiota analysis in animals with ampicillin-induced gut microbiota imbalance (FIG. 1); settings: feces, ampicillin-treated mice, result in words
Method: First, DNA from feces was isolated using the QIAamp DNA stool mini kit (Qiagen, Germany), pyrosequencing was performed by amplifying barcoded primers (V4 region of the bacterial 16S rRNA gene) to generate amplicons, and 16S rDNA was analyzed by Illumina iSeq 100 (San Diego, CA) to analyze occupancy.
as §3

| Substance | Colon (cm) [1] [cm] | IFN-γ/IL-10 [1] | IL-10 [1] [pg/mg] | Interferon (IFN)-γ [1] [pg/mg] | MPO activity [1] [μUnit/mg] | TNF-α [1] [pg/mg] | TNF-α/IL-10 [1] | Colon (cm) [2] [cm] | IFN-γ/IL-10 [2] | IL-10 [2] [pg/mg] | Interferon (IFN)-γ [2] [pg/mg] | MPO activity [2] [μUnit/mg] | TNF-a/IL-10 [2] | TNF-α [2] [pg/mg] | Colon (cm) [3] [cm] | IFN-γ/IL-10 [3] | IL-10 [3] [pg/mg] | Interferon (IFN)-γ [3] [pg/mg] | MPO activity [3] [μUnit/mg] | TNF-a/IL-10 [3] | other results |
| --- | --- | --- | --- | --- | --- | --- | --- | --- | --- | --- | --- | --- | --- | --- | --- | --- | --- | --- | --- | --- | --- |
| Bifidobacterium longum NK219 | 4.8 | 2.35 | 19.56 | 44.72 | 4.30 | 18.59 | 0.96 | 4.95 | 3.32 | 13.00 | 38.64 | 4.62 | 2.12 | 26.73 | 5.45 | 0.26 | 26.75 | 5.84 | 14.76 | 1.16 | TNF-α [3]: 28.27 pg/mg; imbalance in the beta diversity, Proteobacteria, and Bacteroidetes of gut microbiota [4]: improved to a balanced form |
| Lactobacillus rhamnosus NK210 | 5.0 | 2.50 | 21.10 | 44.24 | 4.55 | 20.76 | 0.98 | 4.98 | 3.05 | 9.65 | 28.79 | 4.79 | 2.19 | 20.60 | 5.28 | 0.31 | 21.31 | 5.94 | 11.60 | 1.43 | TNF-α [3]: 22.86 pg/mg; imbalance in the beta diversity, Proteobacteria, and Bacteroidetes of gut microbiota [4]: improved to a balanced form |
